ChEMBL document CHEMBL1201862, “PubChem BioAssay data set” (2004)
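All cell lines were grown in 96-well plates and treated with compound for 48 hours. Here, GI50 denotes the concentration required for 50% inhibition of growth.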 Calls of active or inactive are those of the source. No stated cut-off is given here; in the data, active = GI50 up to about 1.1 µM and inactive = higher.

Experiments:
Test in all cases: growth of human tumour cells (NCI), 48 h
HCT-15 = system: HCT-15
NCI-H460 = system: NCI-H460
HOP-62 = system: HOP-62
OVCAR-3 = system: OVCAR-3
HCC 2998 = system: HCC 2998
UACC-257 = system: UACC-257
NCI-H226 = system: NCI-H226
MDA-MB-435 = system: MDA-MB-435
SK-OV-3 = system: SK-OV-3
SK-MEL-2 = system: SK-MEL-2
OVCAR-8 = system: OVCAR-8
BT-549 = system: BT-549
MDA-N = system: MDA-N
UACC-62 = system: UACC-62
A549 = system: A549
T47D = system: T47D
LOX IMVI = system: LOX IMVI
RPMI-8226 = system: RPMI-8226
OVCAR-4 = system: OVCAR-4
EKVX = system: EKVX

Compound | GI50 (HCT-15) | GI50 (NCI-H460) | GI50 (HOP-62) | GI50 (OVCAR-3) | GI50 (HCC 2998) | GI50 (UACC-257) | GI50 (NCI-H226) | GI50 (MDA-MB-435) | GI50 (SK-OV-3) | GI50 (SK-MEL-2) | GI50 (OVCAR-8) | GI50 (BT-549) | GI50 (MDA-N) | GI50 (UACC-62) | GI50 (A549) | GI50 (T47D) | GI50 (LOX IMVI) | GI50 (RPMI-8226) | GI50 (OVCAR-4) | GI50 (EKVX)
O=C(NCCNCCO)N/N=C/c1ccc([N+](=O)[O-])cc1 | > 100 µM | > 100 µM (inactive) | > 100 µM (inactive) | > 100 µM (inactive) | > 100 µM (inactive) | > 100 µM (inactive) | > 100 µM (inactive) | > 100 µM (inactive) | > 100 µM (inactive) | 49.8 µM (inactive) | > 100 µM (inactive) | > 100 µM (inactive) | 61.4 µM (inactive) | > 100 µM (inactive) | > 100 µM (inactive) | > 100 µM (inactive) |  |  |  | 
CC(C)(C)OC(=O)N[C@@H](Cc1ccccc1)C(=O)N1CC[C@@H](C(=O)N2[C@H]3CC4CC[C@@]3(CS2(=O)=O)C4(C)C)N1 | 56.9 µM | 39.4 µM (inactive) | 78.3 µM (inactive) | 51.6 µM (inactive) | 79.3 µM (inactive) | > 100 µM (inactive) | > 100 µM (inactive) | 51.9 µM (inactive) | > 100 µM (inactive) | 61.7 µM (inactive) | 59.3 µM (inactive) | 63.5 µM (inactive) | 39.3 µM (inactive) | 52.4 µM (inactive) | 43.8 µM (inactive) | 0.752 µM (active) | 75.9 µM (inactive) | 82.6 µM (inactive) | 68.1 µM (inactive) | 
CC(=O)OC(=C(C#N)C#N)c1nccnc1C(C)=O | > 20 µM | 7.83 µM (inactive) |  | 14.6 µM (inactive) | > 20 µM (inactive) | > 20 µM (inactive) | 6.01 µM (inactive) | > 20 µM (inactive) | > 20 µM (inactive) | > 20 µM (inactive) | > 20 µM (inactive) | 13.3 µM (inactive) | 6.17 µM (inactive) | > 20 µM (inactive) | 11.9 µM (inactive) | > 20 µM (inactive) | > 20 µM (inactive) |  | > 20 µM (inactive) | > 20 µM (inactive)
O=C1c2scc(-c3ccc(F)cc3)c2-n2cccc21 | 32.1 µM | 28 µM (inactive) | 15.6 µM (inactive) | 54.1 µM (inactive) | 23.5 µM (inactive) | 71 µM (inactive) | 28.1 µM (inactive) | 11.1 µM (inactive) | 40.6 µM (inactive) | 35.2 µM (inactive) | 57.7 µM (inactive) | 13.6 µM (inactive) | 8.67 µM (inactive) | 18.6 µM (inactive) | 56.5 µM (inactive) | 13.6 µM (inactive) | 24.6 µM (inactive) | 24.5 µM (inactive) | 39.4 µM (inactive) | 24.4 µM (inactive)
COC1OC(=O)C(OC)C(OC)C1OC (configuration not stated) | > 100 µM | > 100 µM (inactive) | > 100 µM (inactive) | > 100 µM (inactive) | > 100 µM (inactive) | > 100 µM (inactive) | > 100 µM (inactive) | > 100 µM (inactive) | > 100 µM (inactive) | > 100 µM (inactive) | 88.3 µM (inactive) | 40.5 µM (inactive) | > 100 µM (inactive) | > 100 µM (inactive) | > 100 µM (inactive) | > 100 µM (inactive) | > 100 µM (inactive) | > 100 µM (inactive) | > 100 µM (inactive) | > 100 µM (inactive)
Cc1cccc2c(N)c3cccc(C(=O)NCC[N+](C)(C)Cc4ccc([N+](=O)[O-])s4)c3nc12 | 3.74 µM | 1.57 µM (inactive) | 4.21 µM (inactive) | 9.04 µM (inactive) | 11.1 µM (inactive) | 23.7 µM (inactive) | 6.68 µM (inactive) | 21.9 µM (inactive) | 19.6 µM (inactive) | 41 µM (inactive) | 9.29 µM (inactive) | 33.5 µM (inactive) | 16 µM (inactive) | 16.5 µM (inactive) | 0.404 µM (active) | 13.6 µM (inactive) | 3.84 µM (inactive) | 2.62 µM (inactive) | 8.15 µM (inactive) | 14.1 µM (inactive)
Oc1ccc(-c2nc(-c3cccnc3)c(-c3ccc(Cl)cc3)[nH]2)cc1O | 10.3 µM |  | 12.4 µM (inactive) | 3.43 µM (inactive) | 13.7 µM (inactive) | 15.1 µM (inactive) | 16.2 µM (inactive) | 13.8 µM (inactive) | 12.4 µM (inactive) | 17.8 µM (inactive) | 11.9 µM (inactive) | 10 µM (inactive) | 11.7 µM (inactive) | 11.2 µM (inactive) | 20.1 µM (inactive) | 11.4 µM (inactive) | 9.82 µM (inactive) | > 100 µM (inactive) | 16.1 µM (inactive) | 18 µM (inactive)
